# Results: ChEMBL document CHEMBL3098109, “The identification of AF38469: an orally bioavailable inhibitor of the VPS10P family sorting receptor Sortilin” (Bioorg Med Chem Lett, 2014)
# What was measured:
# Sortilin (Homo sapiens) = Sortilin (Homo sapiens) (UniProt Q99523); assay: Displacement of [3H]-neurotensin from sortilin (unknown origin) at 50 uM incubated 30 mins prior to [3H]-neurotensin addition measured after 6 hrs by scintillation proximity assay
# Sortilin = molecular target: T1, Sortilin (Homo sapiens, UniProt Q99523)
# T1 sequence (Q99523 whole entry): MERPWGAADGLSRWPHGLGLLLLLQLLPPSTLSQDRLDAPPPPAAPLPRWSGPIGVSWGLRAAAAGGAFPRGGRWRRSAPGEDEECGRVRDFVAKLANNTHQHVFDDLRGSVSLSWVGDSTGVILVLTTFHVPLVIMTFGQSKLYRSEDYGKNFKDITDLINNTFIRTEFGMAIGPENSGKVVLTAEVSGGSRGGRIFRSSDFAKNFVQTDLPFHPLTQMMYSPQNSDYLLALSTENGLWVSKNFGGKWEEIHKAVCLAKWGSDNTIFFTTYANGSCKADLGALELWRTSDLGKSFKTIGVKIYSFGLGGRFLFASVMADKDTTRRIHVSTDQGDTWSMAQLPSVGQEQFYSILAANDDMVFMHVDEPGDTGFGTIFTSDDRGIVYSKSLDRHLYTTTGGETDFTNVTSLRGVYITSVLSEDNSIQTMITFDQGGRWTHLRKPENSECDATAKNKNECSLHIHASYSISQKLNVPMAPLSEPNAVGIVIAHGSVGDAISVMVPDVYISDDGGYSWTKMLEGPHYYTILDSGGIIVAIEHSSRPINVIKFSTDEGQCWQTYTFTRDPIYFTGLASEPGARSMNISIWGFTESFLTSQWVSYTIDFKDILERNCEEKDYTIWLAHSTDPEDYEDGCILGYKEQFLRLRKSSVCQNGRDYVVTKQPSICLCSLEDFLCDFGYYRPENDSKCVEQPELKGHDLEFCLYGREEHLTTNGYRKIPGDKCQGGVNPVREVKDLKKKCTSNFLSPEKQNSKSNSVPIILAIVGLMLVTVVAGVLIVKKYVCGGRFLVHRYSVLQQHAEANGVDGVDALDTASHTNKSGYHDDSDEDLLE
# [1] = Cmax in rat at 2 mg/kg, po; type: ADME, organism-based; set-up: dose 2 mg/kg, route oral; details: in vivo
# [2] = Volume of distribution at steady state in rat at 1 mg/kg, iv; type: ADME, organism-based; set-up: dose 1 mg/kg, route intravenous; details: in vivo, read-out: Vdss
# [3] = Solubility of the compound; type: physicochemical
# [4] = Half life in rat at 1 mg/kg, iv; type: ADME, organism-based; set-up: dose 1 mg/kg, route intravenous; details: in vivo
# [5] = Blood clearance in rat at 1 mg/kg, iv; type: ADME, organism-based; set-up: dose 1 mg/kg, route intravenous; details: whole blood
# [6] = Oral bioavailability in rat at 2 mg/kg; type: ADME, organism-based; details: in vivo
# [7] = Free plasma concentration in rat; type: ADME, cell-free
# [8] = Intrinsic clearance in rat; type: ADME, organism-based; details: in vivo
SMILES,inhibition (Sortilin (Homo sapiens)) [%],further results
Cc1cccc(NC(=O)c2ccccc2C(=O)O)n1,15,
Cc1cc(=O)oc2c(CN[C@@H](CC(C)C)C(=O)O)c(O)ccc12,,IC50 (Sortilin): 4 µM
Cc1cccc(NC(=O)c2c(C)cccc2C(=O)O)n1,43,
CC(C)NC(=O)c1ccc(Br)cc1C(=O)O,35,
Cc1cccc(NC(=O)c2ccc(C(F)(F)F)cc2C(=O)O)n1,,Cmax [1]: 12800 ng/mL; Vd [2]: 0.02 L/kg; solubility [3]: 134 µg/mL; half-life [4]: 1.2 h; clearance [5]: 0.5 mL/min/kg; bioavailability [6]: 35%; fraction unbound [7]: 0.02; CLint scaled [8]: 6.67 mL/min/kg
Cc1cccc(NC(=O)c2cc(Cl)ccc2C(=O)O)n1,69,
Cc1cccnc1NC(=O)c1ccc(Br)cc1C(=O)O,64,
Cc1cccc(NC(=O)c2ccc(-c3ccccc3)cc2C(=O)O)n1,2,

# More lines, main results first:
inhibition (Sortilin (Homo sapiens)) [%],SMILES,further results
5,Cc1cccc(NC(=O)c2cccc(C)c2C(=O)O)n1,
30,CCC(C)NC(=O)c1ccc(Br)cc1C(=O)O (stereo not given),
57,Cc1ccc(C(=O)O)c(C(=O)Nc2cccc(C)n2)c1,
70,Cc1ccc(NC(=O)c2ccc(Br)cc2C(=O)O)cn1,
69,O=C(O)c1cc(Br)ccc1C(=O)Nc1ccccc1,
